The results in this text go back to patent US11266686B2, “Metal complexes and methods of treatment” (PROCYPRA THERAPEUTICS LLC, priority 2013, dated 2022).

For one data set, the system named is MPTP-lesioned mice. The data set is described as follows: Traction wire test in MPTP-lesioned mouse model of PD. In kind it is in vivo. The following applies: for average pull-up time as compared to SSV control: 30 mg/kg API oral for 21 days, gluconic acid NCD p=0.07; for Pull-up Time: 30 mg/kg CuATSM API equivalent, oral gavage for 21 days, average. An excerpt:
Traction wire test: Mice are moved to behavior room-testing room 1 hr before test administration. Water and food remain accessible to the mice, and a background “white noise” from a radio is used throughout the hour and test period. Each mouse is pick up the mouse by the tail in one hand, and the mouse held by the tail over the wire until it grasps the wire with the front two paws. The tail is then lowered until the mouse is suspended from the wire by its front two paws. The timing is started as soon as the mouse is suspended independently, with no assistance from the test administrator. The time taken for the mouse to grasp the wire with one of the back feet, such that two front paws and one back paw are grasping the wire, is recorded as the “pull-up time”. The test is repeated for each mouse, three times in a row with a 5 minute inter-trial interval between each suspension on the wire. Mice are returned to their shared cages between trials. If a mouse falls it counts as a trial, and the time until the fall is recorded, and the inter-trial time interval is begun. If the mouse has not completed the task and has not fallen within 60 seconds, then the mouse is taken off the wire and the trial time recorded as 60 seconds. A total of 47 mice were administered MPTP. Of these, a total of 14 mice were then treated with SSV negative control. A total of 14 mice were treated with CuATSM in SSV, of which one mouse was eliminated from the wire pull-up study because of an injured paw. […] Trials in which the mouse fell during the trial were not included in the averages. […] In all instances the mice completed the other two trials successfully so that an average time was calculated for the individual mouse and subsequently for the population.

The nature of data set [1]: Pharmacokinetics in mice after oral administration, plasma and brain by LC/MS/MS. To be noted: 30 mg/kg CuXTSM API oral; for Brain AUC0-24h / Brain AUC0-inf / Brain Cmax / Brain Tmax / Brain t½ (number of time points): mouse brain; for Brain t½ (number of time points) / Plasma t½ (number of time points): bracket = number of time points; for Plasma Ke / Plasma MRT / Plasma AUC0-24h / Plasma AUC0-inf / Plasma Cmax / Plasma Tmax / Plasma t½ (number of time points): mouse plasma; for Plasma AUC0-24h / Plasma AUC0-inf / Plasma Cmax / Plasma Tmax: CuATSM in SSV, NCDs in water; for Brain:plasma-ratio (AUC-based) / Brain:plasma-ratio (Cmax-based): mouse. On the procedure:
CuATSM was suspended in “Standard Suspension Vehicle” (SSV), consisting of 0.9% (w/v) NaCl, 0.5% (w/v) sodium carboxymethylcellulose, 0.5% (v/v) benzyl alcohol, and 0.4% (v/v) Tween 80 in deionized water. All other test compounds were suspended in sterile water. Samples were prepared by adding one of the compounds to the liquid vehicle (water or SSV) in a vial and then vortexing the mixture for 3 min with a stir bar inside. If the powdered sample was not completely wetted or not completely suspended, the sample was vortexed for another minute. If wetting was still incomplete, the vial was sonicated until a fully wetted suspension was obtained. Between doses, the sample was stirred on medium speed and then vortexed for an additional 20 s immediately before the next dose was removed from the vial. All dosing was completed from a single preparation of the suspension within 60 min of adding the compound to water or SSV.
Mice were deprived of pelleted food overnight, during which time 10% dextrose, as Dextroput, was provided in tap water, after which the test items were administrated orally by gavage in water or SSV. […] The blood samples were kept on ice after sampling and centrifuged at +4° C., 1800×g for 5 min to prepare plasma. Plasma samples were extracted and transferred into pre-labelled Eppendorf test tubes (50 μl exact in one vial, and the remaining in a second vial) and frozen at −20° C. The samples were transported on dry ice to the analysis site. Following blood sampling, mice were euthanized by cervical dislocation, and then brains were collected through opened skulls. The brains were weighed and placed in test tubes and placed on water ice. Phosphate-buffered saline (PBS, pH 7.4), 4 ml per 1 g of brain tissue, was added to the test tube and brains were homogenized by using Ultra-Turrax T25 homogenizer/S25N-10G (Setting 2, 9500 rpm, approximately 10 s). The homogenate was frozen at −20° C. immediately after homogenization. The samples were transported on dry ice to the analysis site.
Dosed mice were studied in triplicate for each of the seven time points, totaling 21 mice dosed for each studied compound. Plasma samples and brain homogenates from four untreated animals were also obtained. The plasma samples were thawed at room temperature (RT), mixed with 2-fold volume of acetonitrile, shaken and centrifuged for 10 min at 13 000×g (Heraeus Pico 17 centrifuge), after which supernatants were transferred into glass vials. The brain homogenate samples were mixed with 2-fold volume of acetonitrile:methanol, shaken, ultrasonicated for 20 min, and centrifuged for 10 min at 13 000×g (Heraeus Pico 17 centrifuge), after which supernatants were transferred into glass vials. […] Quality control (QC) samples were prepared for concentrations 10, 100 and 1000 ng/ml in plasma or brain homogenates.
Elution was with gradient of 0.5% formic acid/acetonitrile (99:1) increased step-wise to (5:95).
The pharmacokinetic parameters for study compounds in plasma and brain were calculated using standard non-compartmental methods. The elimination phase half-life (t½) was calculated by least-squares regression analysis of the terminal linear part of the log concentration-time curve. […] The maximum concentration (Cmax) and the time to Cmax (Tmax) were derived directly from the concentration data. Mean Residence Time, MRT, and elimination rate constant, Ke, were also calculated from the concentration vs. time data of plasma samples.

Turning to `CNC1=NN=C(C)C(C)=NN=C(NC)[S][Cu][S]1.O=C(O)C(O)C(O)C(O)C(O)CO.O=C(O)C(O)C(O)C(O)C(O)CO` [CuATSM:gluconic acid (1:2)], in the data set with MPTP-lesioned mice, the “average pull-up time as compared to SSV control” value is reported as “decrease in the average pull-up time” and the “Pull-up Time” value stood at 4.62 s. In addition, in data set [1], the “Brain AUC0-24h” value was found to be 71554 ng·min/g, the “Brain AUC0-inf” value came to 73544 ng·min/g, the “Brain Cmax” value is 133 ng/g and the “Brain Tmax” value stood at 4 h. Also, in data set [1], the “Brain t½ (number of time points)” value is 261 (3) min, the “Plasma Ke” value came to 0.0028 min⁻¹, the “Plasma MRT” value amounted to 5.95 h and the “Plasma AUC0-24h” value is on record as 25 163 min*ng/mL. In addition, in data set [1], the “Plasma AUC0-inf” value came to 25696 ng·min/mL, the “Plasma Cmax” value turned out to be 36.5 ng/mL, the “Plasma Tmax” value worked out at 4 h and the “Plasma t½ (number of time points)” value is reported as 252 (3) min. Further, in data set [1], the “Brain:plasma-ratio (AUC-based)” value worked out at 2.8 and the “Brain:plasma-ratio (Cmax-based)” value stood at 3.6.

Turning to `CNC1=NN=C(C)C(C)=NN=C(NC)[S][Cu][S]1` [CuATSM, Copper(II) diacetyl-di(N4-methyl)thiosemicarbazone, reference compound], in the data set with MPTP-lesioned mice, the “average pull-up time as compared to SSV control” value is listed as “significant (both p<0.01 or less) decrease” and the “Pull-up Time” value came out at 4.22 s. Also, in data set [1], the “Brain AUC0-24h” value turned out to be 10944 ng·min/g, the “Brain AUC0-inf” value is 13843 ng·min/g, the “Brain Cmax” value is listed as 28.4 ng/g and the “Brain Tmax” value is 1 h. Moreover, in data set [1], the “Brain t½ (number of time points)” value was 199 (3) min, the “Plasma Ke” value stood at 0.0035 min⁻¹, the “Plasma MRT” value is 5.25 h and the “Plasma AUC0-24h” value came out at 9637 ng·min/mL. Moreover, in data set [1], the “Plasma AUC0-inf” value was found to be 9698 ng·min/mL, the “Plasma Cmax” value is on record as 22.2 ng/mL, the “Plasma Tmax” value amounted to 2 h and the “Plasma t½ (number of time points)” value is reported as 196 (4) min. For the same compound, in data set [1], the “Brain:plasma-ratio (AUC-based)” value was found to be 1.1 and the “Brain:plasma-ratio (Cmax-based)” value is given as 1.3.

Consider `CNC1=NN=C(C)C(C)=NN=C(NC)[S][Cu][S]1.O=C1NS(=O)(=O)c2ccccc21.O=C1NS(=O)(=O)c2ccccc21` [CuATSM:saccharin (1:2)], for which, in the data set on MPTP-lesioned mice, the “average pull-up time as compared to SSV control” value was “significant (both p<0.01 or less) decrease” and the “Pull-up Time” value amounted to 3.11 s. For the same compound, in data set [1], the “Brain AUC0-24h” value was found to be 30643 ng·min/g, the “Brain AUC0-inf” value turned out to be 30979 ng·min/g, the “Brain Cmax” value worked out at 71.8 ng/g and the “Brain Tmax” value worked out at 0.25 h. Moreover, in data set [1], the “Brain t½ (number of time points)” value is recorded as 202 (2) min, the “Plasma Ke” value was determined as 0.0040 min⁻¹, the “Plasma MRT” value was found to be 6.25 h and the “Plasma AUC0-24h” value is 20 333 min*ng/mL. Also, in data set [1], the “Plasma AUC0-inf” value turned out to be 20436 ng·min/mL, the “Plasma Cmax” value stood at 29.0 ng/mL, the “Plasma Tmax” value came to 2 h and the “Plasma t½ (number of time points)” value was 170 (2) min. Also, in data set [1], the “Brain:plasma-ratio (AUC-based)” value is on record as 1.5 and the “Brain:plasma-ratio (Cmax-based)” value was determined as 2.5.
